Earlier results on five substances are cited in article PMC6962532 (Journal of the American Chemical Society, 2020).

One data set has as its system AgrC-I. As to conditions: for activity of native AIP signal on AgrC-I: cross-group interaction.
The test system of another data set is AgrC-II. The settings on record: cross-group interaction.
In another data set the test system is AgrC-III. As to conditions: cross-group interaction.

As to A-S-A-(C-A-A-Y-F) [AAA], the IC50 value entry in the data set on AgrC-I (AgrC-I, in words) was “single-digit nanomolar”.

Take D-S-A-(C-A-S-Y-F) [AIP-I V3A]: in the data set with AgrC-I (AgrC-I), the “antagonism potency relative to t-AIP-I” value was “approximately four-fold more potent”. D-S-V-(C-A-S-Y-F) [AIP-I]: in the data set with AgrC-II, the “activity of native AIP signal on AgrC-II” value is listed as “inhibits”. Further, in the data set on AgrC-III, the “activity of native AIP signal on AgrC-III” value is “inhibits”. For N-A-A-K-Y-N-P-(C-A-S-Y-L) [AIP-III], the “activity of native AIP signal on AgrC-I” value with AgrC-I was “inhibit”.

For N-A-S-K-Y-N-P-(C-S-N-Y-L) [AIP-II], the “activity of native AIP signal on AgrC-I” value with AgrC-I was “inhibit”.
